Assay results as given in patent US20090068290A1, “BIFEPRUNOX DOSES FOR TREATING SCHIZOPHRENIA” (priority 2006, published 2009).

Assays:
Type in all cases: in vivo, human
[1] = tested on: adult subjects with schizophrenia; experiment: PANSS total score, Clinical Study One (6-week, risperidone-referenced); settings: for Change from Baseline in PANSS Total Score, Mean (S.D.) / Change from Baseline in PANSS Total Score, Median / PANSS Total Score, Trt Effect (bifeprunox minus placebo mean change from Baseline): ITT; for PANSS Total Score, Trt Effect (bifeprunox minus placebo mean change from Baseline): ANCOVA
Protocol: (§1) There were five treatment groups in this study. […] Study medication was administered once daily. After Baseline measurements were performed, the titration phase was begun. Bifeprunox treated subjects were titrated up to 5 mg, 10 mg or 20 mg according to a standardized titration schedule (Day 1: 0.125 mg, Day 2: 0.25 mg, Day 3: 0.5 mg, Day 4: 1.0 mg, Day 5: 2.0 mg, Day 6: 5.0 mg, Day 7: 10.0 mg, Day 8: 20 mg). When the assigned dose was reached, subjects were maintained at that dose for the remainder of the six-week treatment period.
Test Product. Dose and Mode of Administration: Bifeprunox tablets, total daily dose 0.125 mg to 20 mg administered orally using a once daily dosing regimen.
The change in the Positive and Negative Symptom Scale (PANSS) total score, from baseline to endpoint, was the primary outcome measure. Secondary efficacy measures included: PANSS positive, PANSS negative, PANSS general psychopathology (GPP) score, PANSS-derived Brief Psychiatric Rating Scale (BPRS) score, Clinical Global Impressions-Severity of Illness (CGI-S), CGI-Improvement (CGI-I) scores, and responder rates. Safety and tolerability evaluations included extrapyramidal symptoms (EPS), weight gain, lipid profile, and serum prolactin.

[2] = tested on: adult subjects with schizophrenia; experiment: CGI responder rate, Clinical Study One
Protocol: as §1
CLINICAL STUDY ONE: A CGI responder is defined as a subject who is categorized as “very much improved” or “much improved” on the CGI Improvement scale.

[3] = tested on: adult subjects with schizophrenia; experiment: PANSS total score, Clinical Study Three (6-week, olanzapine-referenced); settings: LOCF, ITT
Protocol: There were four treatment arms in this study, approximately 144 subjects per arm. […] After completing the Single-Blind Placebo Lead-in Period of at least three days, bifeprunox-treated subjects were titrated from 0.25 mg up to 20 mg/day or 30 mg/day according to a standardized titration scheme over a seven- or eight-day period, respectively. When the assigned dose was reached, subjects were maintained at that dose for the remainder of the six week treatment period. […] Subjects were hospitalized (if not already inpatients) after eligibility for study entry was verified, starting from the Screening Visit until at least 10 days after Baseline. Subjects could be hospitalized longer than 10 days if considered medically necessary by the Investigator. Rating scale assessments for efficacy and abnormal movement disorders were done weekly except for Week 5. Safety assessments were performed at Screening, during treatment and at the end of the study. Subject satisfaction with study medication was assessed at Week 6. Samples of whole blood were obtained at Weeks 2, 4, and 6 for determination of bifeprunox in plasma.
Test Product, Dose and Mode of Administration: Bifeprunox tablets, total daily dose 20 mg or 30 mg (one 20 mg tablet and one 10 mg tablet) administered orally using a once daily dosing regimen.

[4] = Bifeprunox 10 mg, Endpoint LOCF
[5] = Bifeprunox 20 mg, Endpoint LOCF
[6] = Bifeprunox 20 mg, Week 6/Endpoint

## O=c1[nH]c2cccc(N3CCN(Cc4cccc(-c5ccccc5)c4)CC3)c2o1 [Bifeprunox, 7-[4-([1,1′-biphenyl]-3-ylmethyl)-1-piperazinyl]-2(3H)-benzoxazolone]
[1]; Bifeprunox 5 mg, Endpoint LOCF
  Change from Baseline in PANSS Total Score, Mean (S.D.): −9.7 (17.5)
  Change from Baseline in PANSS Total Score, Median: −8
  PANSS Total Score, Trt Effect (bifeprunox minus placebo mean change from Baseline): −4.1
[1]; Bifeprunox 5 mg, Week 1, LOCF
  Change from Baseline in PANSS Total Score, Mean (S.D.): −3.9 (13.1)
  Change from Baseline in PANSS Total Score, Median: −4
[1]; Bifeprunox 5 mg, Week 2, LOCF
  Change from Baseline in PANSS Total Score, Mean (S.D.): −6.7 (14.9)
  Change from Baseline in PANSS Total Score, Median: −7
[1]; Bifeprunox 5 mg, Week 3, LOCF
  Change from Baseline in PANSS Total Score, Mean (S.D.): −7.7 (16.1)
  Change from Baseline in PANSS Total Score, Median: −7
[1]; Bifeprunox 5 mg, Week 4, LOCF
  Change from Baseline in PANSS Total Score, Mean (S.D.): −8.7 (17.1)
  Change from Baseline in PANSS Total Score, Median: −7
[1]; [4]
  Change from Baseline in PANSS Total Score, Mean (S.D.): −5.0 (18.3)
  Change from Baseline in PANSS Total Score, Median: −4
  PANSS Total Score, Trt Effect (bifeprunox minus placebo mean change from Baseline): 0.6
[1]; Bifeprunox 10 mg, Week 1, LOCF
  Change from Baseline in PANSS Total Score, Mean (S.D.): −2.9 (11.7)
  Change from Baseline in PANSS Total Score, Median: −1
[1]; Bifeprunox 10 mg, Week 2, LOCF
  Change from Baseline in PANSS Total Score, Mean (S.D.): −4.2 (14.6)
  Change from Baseline in PANSS Total Score, Median: −3
[1]; Bifeprunox 10 mg, Week 3, LOCF
  Change from Baseline in PANSS Total Score, Mean (S.D.): −4.6 (17.4)
  Change from Baseline in PANSS Total Score, Median: −3
[1]; Bifeprunox 10 mg, Week 4, LOCF
  Change from Baseline in PANSS Total Score, Mean (S.D.): −4.1 (17.2)
  Change from Baseline in PANSS Total Score, Median: −5
[1]; [5]
  Change from Baseline in PANSS Total Score, Mean (S.D.): −11.3 (17.0)
  Change from Baseline in PANSS Total Score, Median: −11
  PANSS Total Score, Trt Effect (bifeprunox minus placebo mean change from Baseline): −5.8
[1]; Bifeprunox 20 mg, Week 1, LOCF
  Change from Baseline in PANSS Total Score, Mean (S.D.): −6.3 (11.5)
  Change from Baseline in PANSS Total Score, Median: −5
[1]; Bifeprunox 20 mg, Week 2, LOCF
  Change from Baseline in PANSS Total Score, Mean (S.D.): −9.0 (14.0)
  Change from Baseline in PANSS Total Score, Median: −8
[1]; Bifeprunox 20 mg, Week 3, LOCF
  Change from Baseline in PANSS Total Score, Mean (S.D.): −11.2 (14.5)
  Change from Baseline in PANSS Total Score, Median: −11
[1]; Bifeprunox 20 mg, Week 4, LOCF
  Change from Baseline in PANSS Total Score, Mean (S.D.): −11.2 (15.9)
  Change from Baseline in PANSS Total Score, Median: −11
[1]; bifeprunox 5 mg, 6 weeks
  superiority to placebo, primary efficacy endpoint (PANSS total score): did not show superiority to placebo
[1]; bifeprunox 10 mg, 6 weeks
  improvement compared to placebo, any efficacy endpoint: did not show statistically greater improvement for any efficacy endpoint
[1]; bifeprunox 20 mg once daily, 6 weeks
  efficacy compared to placebo (PANSS total and subscale scores): effective in reducing both positive and negative symptoms of schizophrenia
[1]; bifeprunox 20 mg, 6 weeks
  greater improvement from Baseline in PANSS total score compared with placebo: 5.8 point
[1]; bifeprunox 20 mg, 6 weeks (Example 4)
  reduction in the PANSS total score compared to placebo: statistically significant (P<0.05) compared to placebo at Week 3 and Week 6/endpoint
[2]; 5 mg
  CGI Responder at Endpoint (LOCF), %: 33%
[2]; 10 mg
  CGI Responder at Endpoint (LOCF), %: 19%
[2]; 20 mg
  CGI Responder at Endpoint (LOCF), %: 25%
[3]; Bifeprunox 20 mg, Week 1
  Change from Baseline in PANSS Total Score, Mean (SD): −5.6 (11.7)
  Change from Baseline in PANSS Total Score, Median: −5
[3]; Bifeprunox 20 mg, Week 2
  Change from Baseline in PANSS Total Score, Mean (SD): −10.2 (14.8)
  Change from Baseline in PANSS Total Score, Median: −10
[3]; Bifeprunox 20 mg, Week 3
  Change from Baseline in PANSS Total Score, Mean (SD): −12.6 (16.9)
  Change from Baseline in PANSS Total Score, Median: −13
[3]; Bifeprunox 20 mg, Week 4
  Change from Baseline in PANSS Total Score, Mean (SD): −13.3 (18.7)
  Change from Baseline in PANSS Total Score, Median: −13
[3]; [6]
  Change from Baseline in PANSS Total Score, Mean (SD): −13.8 (19.9)
  Change from Baseline in PANSS Total Score, Median: −14
[3]; Bifeprunox 20 mg, Week 6/Endpoint, ANCOVA
  PANSS Total Score, Trt Effect (difference between bifeprunox and placebo): −3.5
[3]; Bifeprunox 30 mg, Week 1
  Change from Baseline in PANSS Total Score, Median: −6
[3]; Bifeprunox 30 mg, Week 2
  Change from Baseline in PANSS Total Score, Mean (SD): −8.5 (15.6)
  Change from Baseline in PANSS Total Score, Median: −9
[3]; Bifeprunox 30 mg, Week 3
  Change from Baseline in PANSS Total Score, Mean (SD): −11.1 (18.0)
